From US11192888B2, “Antibacterial compounds” (priority 2017, dated 2021)
≈ marks a conversion by molar mass, not a printed value. Read-outs that look alike come from different tables or passages of the source. *1 amine or outer side, *2 acyl side, *3 side chain or, on linkers, in order; H or OH if unused. Where a SMILES comes first, the peptide text is derived from it. [ ]: non-standard residue; d: D form. dAla(ψthiazole) = C[C@@H](N[*:1])c1nc(C(=O)[*:2])cs1; Trp(4-Br) = N[C@@H](Cc1c[nH]c2cccc(Br)c12)C(=O)O; Trp(4-Cl) = N[C@@H](Cc1c[nH]c2cccc(Cl)c12)C(=O)O; Trp(4-OMe) = COc1cccc2[nH]cc(C[C@H](N)C(=O)O)c12; X1 = O=C(/C(=C/c1ccccc1)N[*:1])[*:2]; X2 = CC(C)/C=C(\N[*:1])C(=O)[*:2]; ΔVal = CC(C)=C(N)C(=O)O; Dha = C=C(N)C(=O)O; Sar = CNCC(=O)O

Assays:
B. multivorans ATCC17616 = settings: for IC50: ATCC17616, 25 h
P. aeruginosa PAO1 = settings: for activity against P. aeruginosa in comparison to the Dha containing compound 3: PAO1; for IC50 / % Growth inhibition at 100 μM: PAO1, 13 h
Strep. agalactiae = settings: 13 h
[1] = test system: Clostridium difficile 630Δerm; settings: 13 h
[2] = test system: clinical isolates and one wild-type strain of P. aeruginosa; test: Growth of P. aeruginosa clinical isolates and wild-type strain with compounds (FIG. 1); type: cell-based, Pseudomonas aeruginosa; settings: isolates W4, W14, W23, W46 and PAO1; MH media, 13 hours (FIG. 1)
Method: FIGS. 1a and 1b are graphs showing the effects of varying concentrations of compounds 2 and 3 according to the invention on the growth of different strains of P. aeruginosa in Müller-Hinton (MH) media, after 13 hours.
The antibacterial activity of compounds 2 and 3 were tested against clinical isolates and one wild-type strain of P. aeruginosa displaying varying antibiotic sensitivity.
The antibacterial activity of compounds 2 and 3 were tested against these clinical isolates and one wild-type strain of P. aeruginosa.

Strep. pyogenes = settings: 13 h
[3] = test system: C. difficile ATCC 43255 (aka VPI 10463; ribotype 087); test: Mouse model of C. difficile-associated disease; type: in vivo, C57BL/6 mice
[4] = test system: Pseudomonas aeruginosa NCTC 13437
[5] = test system: Enterobacter cloacae NCTC 13406
[6] = test system: Clostridium ramosum DSM 1402
[7] = test system: Corynebacterium urealyticum NCTC 12011
[8] = test system: Proteus mirabilis DSM 30116
[9] = test system: Clostridium perfringens NCTC 8237
[10] = test system: Bifidobacterium breve ATCC 15700
[11] = test system: Actinomyces viscosus DSM 43327
B. vietnamiensis J2863 = test: Growth of Burkholderia with compound (FIG. 3), B. vietnamiensis; type: cell-based; settings: FIG. 3, LB broth, 17 hours
Method: (§1) FIG. 3 is a graph showing the effect of varying concentrations of compound 3 according to the invention on the growth of Burkholderia in Lysogeny broth (LB broth) after 17 hours.
(§2) Compound 3 was tested to determine its antibacterial activity against B. multivorans, B. cepasia and B. vietnamiensis.

[12] = test system: Corynebacterium jeikeium NCTC 11914
[13] = test system: Clostridium innocuum DSM 1286
[14] = test system: Bacteroides fragilis ATCC 25285; settings: ATCC 25285
[15] = Method: In this study, a single oral dose of compound 3 in 0.5% w/v aqueous methylcellulose at 5 mg/kg was administered to nine mice in a 10 mL/kg dosing volume and housed in metabolism cages. Following administration of the compound, serial blood samples of 50 μL was taken from the lateral tail vein at each of 7 post-dosing time-points (0.25, 0.5, 1, 2, 4, 7 and 24 h). Whole blood samples were then diluted 1:1 with water and two 40 μL aliquots were pipetted into duplicate 96 well plate tubes. At the end of 24 h, all faecal samples were collected and pooled. A quantitative bioanalysis by LC-MS/MS of the blood and faecal levels of compound 3 was carried out to determine the oral absorbability and gastrointestinal metabolic stability of compound 3.
To evaluate the metabolic stability of orally administered compound 3, metabolite profiling of the faecal sample was performed.

[16] = test system: Pseudomonas aeruginosa ATCC 27853
[17] = test system: Corynebacterium striatium NCTC 764
B. cepasia ATCC25416 = test: Growth of Burkholderia with compound (FIG. 3), B. cepasia; type: cell-based; settings: FIG. 3, LB broth, 17 hours
Method: as §1, §2

[18] = test system: Escherichia coli ATCC 25922
[19] = test system: Enterococcus faecalis ATCC 29212
[20] = test system: Staphylococcus aureus ATCC 29213
[21] = test system: Lactobacillus rhamnosus ATCC 53103
[22] = test system: Citrobacter koseri Clinical
[23] = test system: Propionibacterium acnes ATCC 6919
[24] = test system: Clostridium difficile ATCC 43255; test: CLSI MIC, representative gut bacteria; type: cell-based; settings: Clostridium difficile ATCC 43255
Method: (§3) Comparative in vitro bacterial susceptibility to compounds 3, 9 and 10, vancomycin and metronidazole was determined using methods according to the Clinical and Laboratory Standard Institute (CLSI) approved guidelines (M7-A10, M11-A7 or M45-A2) for anaerobic and aerobic organisms.

[25] = test system: Clostridium sordellii ATCC 9714; test: CLSI MIC, representative gut bacteria; type: cell-based
Method: as §3

[26] = test system: Enterococcus faecium NCTC 12204
[27] = test system: Bifidobacterium bifidum ATCC 11863
[28] = amide bond, 24-membered ring, PyBOP/HOBt/DIPEA, 0.5 mM

CC(C)=C1NC(=O)[C@@H](C)NC(=O)CNC(=O)[C@H](Cc2c[nH]c3cccc(Br)c23)NC(=O)[C@H](Cc2c[nH]c3ccccc23)NC(=O)c2csc(n2)[C@@H](C)NC(=O)CN(C)C1=O [Compound 13, Cyclo[D-Ala-Thz-Trp-Trp(4-Br)-Gly-D-Ala-Dhv-Sar]] (cyclo(G[dA][ΔVal][Sar][dAla(ψthiazole)]W[Trp(4-Br)]))
IC50 (B. multivorans ATCC17616): 1.54 ± 0.2 µM | activity against P. aeruginosa in comparison to the Dha containing compound 3 (P. aeruginosa PAO1): did not result in a notable change in activity | IC50 (P. aeruginosa PAO1): 12.2 ± 0.2 µM | % Growth inhibition at 100 μM (P. aeruginosa PAO1): 85.1 ± 3.4%

C=C1NC(=O)[C@@H](C)NC(=O)CNC(=O)[C@H](Cc2c[nH]c3cccc(Cl)c23)NC(=O)[C@H](Cc2c[nH]c3ccccc23)NC(=O)c2csc(n2)[C@@H](C)NC(=O)CN(C)C1=O [Compound 2, Cyclo[D-Ala-Thz-Trp-Trp(4-Cl)-Gly-D-Ala-Dha-Sar]] (cyclo([Dha][Sar][dAla(ψthiazole)]W[Trp(4-Cl)]G[dA]))
IC50 (B. multivorans ATCC17616): 2.9 ± 2.5 µM | IC50 (P. aeruginosa PAO1): 16.8 ± 2.9 µM | % Growth inhibition at 100 μM (P. aeruginosa PAO1): 87.0 ± 1.0% | IC50 (Strep. agalactiae): > 100 µM | IC50 [1]: 0.18 ± 0.03 µM | susceptibility of the isolates to the compound [2]: equally susceptible | IC50 (Strep. pyogenes): > 100 µM

C=C1NC(=O)[C@@H](C)NC(=O)CNC(=O)[C@H](Cc2c[nH]c3cccc(OC)c23)NC(=O)[C@H](Cc2c[nH]c3ccccc23)NC(=O)c2csc(n2)[C@@H](C)NC(=O)CN(C)C1=O [Argyrin A, Cyclo[D-Ala-Thz-Trp-Trp(4-MeO)-Gly-D-Ala-Dha-Sar], reference compound] (cyclo(W[Trp(4-OMe)]G[dA][Dha][Sar][dAla(ψthiazole)]))
IC50 (B. multivorans ATCC17616): 3.1 ± 1.7 µM | IC50 (P. aeruginosa PAO1): 19.8 ± 1.6 µM | % Growth inhibition at 100 μM (P. aeruginosa PAO1): 82.6 ± 7.4%

c1cc(-c2nc3ccc(-c4ccc5nc(-c6ccncc6)[nH]c5c4)cc3[nH]2)ccn1 [SMT19969, reference compound]
Mean survival ([3]; 20 mg/kg oral BD for 5 days): 88.00 h

CCc1c(Cl)c(O)c(Cl)c(O)c1C(=O)O[C@H]1[C@H](O)[C@H](OC)[C@H](OC/C2=C\C=C\C[C@H](O)/C(C)=C/[C@H](CC)[C@@H](O[C@@H]3OC(C)(C)[C@@H](OC(=O)C(C)C)[C@H](O)[C@@H]3O)/C(C)=C/C(C)=C/C[C@@H]([C@@H](C)O)OC2=O)O[C@@H]1C [Fidaxomicin, reference compound]
survival to the end of the study at day-21 post-infection ([3]; 2.5 mg/kg): survived to the end of the study | Mean survival ([3]; 2.5 mg/kg oral BD for 5 days): 504.00 h

C=C1NC(=O)[C@@H](C)NC(=O)CNC(=O)[C@H](Cc2c[nH]c3cccc(Br)c23)NC(=O)[C@H](Cc2c[nH]c3ccccc23)NC(=O)c2csc(n2)[C@@H](C)NC(=O)CN(C)C1=O [Compound 3, Cyclo[D-Ala-Thz-Trp-Trp(4-Br)-Gly-D-Ala-Dha-Sar]] (cyclo([Dha][Sar][dAla(ψthiazole)]W[Trp(4-Br)]G[dA]))
MIC [4]: >64 µg/mL | MIC [5]: >64 µg/mL | MIC [6]: >64 µg/mL | MIC [7]: >64 µg/mL | MIC [8]: >64 µg/mL | MIC [9]: >64 µg/mL | MIC [10]: >64 µg/mL | IC50 (B. multivorans ATCC17616): 1.6 ± 1.4 µM | antibacterial activity (growth decrease) (B. multivorans ATCC17616; FIG. 3, LB broth, 17 hours): highly active | MIC [11]: 64 µg/mL (≈ 73.2 µM) | IC50 (P. aeruginosa PAO1): 13.2 ± 3.2 µM | % Growth inhibition at 100 μM (P. aeruginosa PAO1): 85.7 ± 0.6% | antibacterial activity (growth decrease) (B. vietnamiensis J2863): highly active | MIC [12]: >64 µg/mL | MIC [13]: >64 µg/mL | IC50 (Strep. agalactiae): > 100 µM | MIC [14]: >64 µg/mL | share of the mass of compounds detected in pooled faecal sample that corresponds to the compound ([15]; LC-MS metabolite profiling, above control sample): 85% | compound recovered from pooled faeces ([15]; oral 5 mg/kg, mice, 24 h): 63% | systemic exposure (blood) ([15]; single oral dose 5 mg/kg, mice, over 24 h): undetectable | MIC [16]: >64 µg/mL | MIC [17]: >64 µg/mL | antibacterial activity (growth decrease) (B. cepasia ATCC25416): highly active | MIC [18]: >64 µg/mL | MIC [19]: >64 µg/mL | MIC [20]: >64 µg/mL | MIC [21]: >64 µg/mL | MIC [22]: >64 µg/mL | MIC [23]: >64 µg/mL | MIC [24]: 1.0 µg/mL (≈ 1.14 µM) | MIC [25]: 32 µg/mL (≈ 36.6 µM) | IC50 [1]: 0.13 ± 0.02 µM | susceptibility of the isolates to the compound [2]: equally susceptible | MIC [26]: >64 µg/mL | IC50 (Strep. pyogenes): > 100 µM | MIC [27]: >64 µg/mL

C[C@H]1NC(=O)CNC(=O)[C@H](Cc2c[nH]c3cccc(Br)c23)NC(=O)[C@H](Cc2c[nH]c3ccccc23)NC(=O)c2csc(n2)[C@@H](C)NC(=O)CN(C)C(=O)/C(=C/c2ccccc2)NC1=O [Compound 12, Cyclo[D-Ala-Thz-Trp-Trp(4-Br)-Gly-D-Ala-Dhp-Sar]] (cyclo(G[dA][X1][Sar][dAla(ψthiazole)]W[Trp(4-Br)]))
IC50 (B. multivorans ATCC17616): 1.1 ± 0.2 µM | activity against P. aeruginosa in comparison to the Dha containing compound 3 (P. aeruginosa PAO1): dramatic loss in activity | IC50 (P. aeruginosa PAO1): > 100 µM | % Growth inhibition at 100 μM (P. aeruginosa PAO1): 20.1 ± 5.4%

CC(C)/C=C1\NC(=O)[C@@H](C)NC(=O)CNC(=O)[C@H](Cc2c[nH]c3cccc(Br)c23)NC(=O)[C@H](Cc2c[nH]c3ccccc23)NC(=O)c2csc(n2)[C@@H](C)NC(=O)CN(C)C1=O [Compound 14, Cyclo[D-Ala-Thz-Trp-Trp(4-Br)-Gly-D-Ala-Dhl-Sar]] (cyclo(G[dA][X2][Sar][dAla(ψthiazole)]W[Trp(4-Br)]))
IC50 (B. multivorans ATCC17616): 0.98 ± 0.1 µM | activity against P. aeruginosa in comparison to the Dha containing compound 3 (P. aeruginosa PAO1): dramatic loss in activity | IC50 (P. aeruginosa PAO1): > 100 µM | % Growth inhibition at 100 μM (P. aeruginosa PAO1): 40.1 ± 6.8%

C=C1NC(=O)[C@@H](C)NC(=O)CNC(=O)[C@H](Cc2c[nH]c3ccccc23)NC(=O)[C@H](Cc2c[nH]c3ccccc23)NC(=O)c2csc(n2)[C@@H](C)NC(=O)CN(C)C1=O [Cyclo(D-Ala-D-Thiazole-L-Trp-L-Trp-Gly-D-Ala-Dha-Sar)]
ring closure, yield after HPLC ([28]; from H-dAla-Thz-Trp-Trp-Gly-dAla-Dha-Sar-OH?, DCM): 7%

C=C1NC(=O)[C@@H](C)NC(=O)CNC(=O)[C@H](Cc2c[nH]c3ccc(Cl)c(Cl)c23)NC(=O)[C@H](Cc2c[nH]c3ccccc23)NC(=O)c2csc(n2)[C@@H](C)NC(=O)CN(C)C1=O [Cyclo[D-Ala-Thz-Trp-Trp(4,5-C1)-Gly-D-Ala-Dha-Sar]]
ring closure, yield after HPLC ([28]; from H-dAla-Thz-Trp-Trp(4,5-Cl)-Gly-dAla-Dha-Sar-OH?): 2%
